{"source": "patent US20230104477A1", "about": "“USE OF DEHYDROASCORBIC ACID AGAINST NEMATODE INFECTION IN PLANTS” (Universiteit Gent, priority 2019, published 2023)", "key": {"[1]": {"assay": "Ascorbate measurements in shoots and roots of foliar sprayed rice", "type": "in vivo, Oryza sativa cv. Nipponbare", "conditions": "24 h after foliar application; vs control plants", "protocol": "(§1) For foliar application, all chemicals were dissolved in water and 0.02% (v/v) of Tween20 as a surfactant was added prior to spraying on aerial portions of the rice plants. Control plants were sprayed with distilled water containing 0.02% Tween20. Eight plants per treatment were sprayed until run-off with 6.5 mL of solution (at 24 h prior to nematode inoculation, in cases where infected plants were used). The substrate was covered to avoid direct contact with the roots and/or nematodes.\n[…] In each assay, 100 mg of crushed material was used per sample, and at least 4 biological replicates were analyzed per treatment. Reduced and oxidized AA were measured according to the method described in Ueda et al., 2013. Absorbance was monitored using a microplate reader (TECAN—Infinite200pro)."}, "[2]": {"test_system": "root-knot nematode Meloidogyne graminicola", "assay": "Susceptibility assay on rice plants, soil drench", "type": "in vivo", "conditions": "soil drench 24 h prior to inoculation (AA 20 mM, DHA 20 mM, AO 20 U/mL); twelve days after inoculation; vs control", "protocol": "(§2) M. graminicola originally isolated in the Philippines (Batangas) was cultured on susceptible rice plants. Second stage juveniles (J2s) were extracted using a sieve/tray extraction method and inoculation was done as described in Nahar et al., (2011). For susceptibility assays, at least two independent experiments were carried out, each time including eight plants per treatment. Twelve days after inoculation (dai), roots were stained using acid fuchsine (Nahar et al., 2011) to count galls and number of nematodes in the roots.\n(§3) Reduced Ascorbic acid (AA, 20 mM), dehydroascorbic acid (DHA, 20 mM), ascorbate oxidase (AO, 20 U/ml), methyl jasmonate (MeJA, 100 μM), aminooxyacetic acid (AoA, 12.5 mM), diethyldithiocarbamic acid (DIECA, 100 μM) and ethephon (100 μM) were purchased from Sigma and dissolved in water (except MeJA that was first dissolved in a drop of ETOH) to attain the indicated concentration.\nFor soil application, 6.5 mL of each solution was drenched on the substrate, 24 h prior to nematode inoculation."}, "rice seedlings": {"test_system": "rice seedlings", "assay": "Evaluation of seedling growth after drenching rice seedlings", "type": "in vivo, Oryza sativa cv. Nipponbare", "conditions": "3-days old rice seedlings drenched with 1 mL (AA 20 mM, DHA 20 mM, AO 20 U/ml); 5 days after drenching; vs water control", "protocol": "(§4) Rice—Seeds of wild-type rice Oryza sativa cv. Nipponbare were obtained from USDA (GSOR-100). Seeds were germinated on wet filter paper for 4-5 days at 30° C. and seedlings were then transferred to SAP-substrate (Sand mixed with Absorbent Polymer AquaPerla®, DCM, Belgium) and further grown at 28° C., under a light regime of (day/night) 12/12. Hoagland solution was given as a source of nutrients 3 times a week.\nas §3\n3-days old rice seedlings were drenched with 1 mL of AA (20 mM), AO (20 U/mL), DHA (20 mM) or water (H2O) as a negative control. Rice root length and dry root weight as well as the number of embryonic crown roots (ECR) were measured 5 days after drenching."}, "[3]": {"test_system": "root-knot nematode M. graminicola", "assay": "Susceptibility assay on rice plants, foliar spray", "type": "in vivo, Meloidogyne graminicola", "conditions": "foliar spray 24 h prior to inoculation (AA 20 mM, DHA 20 mM, AO 20 U/ml); 12 dai; vs control", "protocol": "as §2, §3, §1"}, "Heterodera schachtii": {"test_system": "Heterodera schachtii", "assay": "Sugar beet tolerance to beet cyst nematode infection after foliar spray", "type": "in vivo", "conditions": "three-weeks old sugar beet, foliar spray (AA 20 mM, AO 20 U/mL, DHA 20 mM), 250 H. schachtii per plant, 4 DAS (3 dai); for shoot height: DHA effect not statistically significant", "protocol": "(§5) Sugar beet—seeds of cv. Amarok were germinated on moist tissue for 4-5 days at 25° C. For longer experiments seedlings were transplanted to polyvinyl-chloride (PVC) tubes containing fine soil particles. All experiments were conducted in a plant growth room at 25° C., with a 16/8 h day/night regime. The plants were fertilized by supplying Hoagland solution as a source of nutrients 3 times a week.\nBNC cysts were obtained from Iran and were maintained on sugar beet (cv. Amarok) plants. Cysts were obtained from stock cultures, by washing the infected soil and letting the cysts to float in water. Full cysts with eggs were hand-picked and allowed to dry before setting up for hatching. For second-stage juveniles (J2) to hatch, cysts were placed in 3 mM of […] and transferred to an incubator/shaker at a temperature of 25.5° C. at 70 rpm for 4 days (Kammerhofer et al., 2015). J2 were re-suspended in water and counted under a stereomicroscope. Around 250-300 J2 nematodes were inoculated per plant. One day before and after inoculation, plants were not supplied with any nutrients or water. To investigate the plant tolerance to BCN infection root length, shoot height, fresh root weight as well as the number of cysts were measured at different time points after spraying and/or inoculation. For all experiments, 8 individual plants were used per treatment.\nas §3, §1"}, "M. graminicola": {"test_system": "M. graminicola", "assay": "Infection experiment with JA/ET mutant and biosynthesis inhibitors, foliar spray", "type": "in vivo, Meloidogyne graminicola", "conditions": "inhibitor alone sprayed on wild-type (DIECA 100 μM, AoA 12.5 mM) vs wild-type/control plants; 12 days after inoculation", "protocol": "as §2, §3, §1"}, "root defence pathways": {"test_system": "root defence pathways", "conditions": "foliar application; cited from earlier work"}, "root parasitic nematodes": {"test_system": "root parasitic nematodes", "conditions": "root application; cited from earlier work"}, "[4]": {"test_system": "root-knot nematode Meloidogyne graminicola", "assay": "Root growth in rice after foliar spray, nematode-infected conditions (tolerance)", "type": "in vivo", "conditions": "14-days old rice, foliar spray AO 20 U/mL, 250 nematodes per plant, time point not stated", "protocol": "as §4, §2, §3, §1"}, "sugar beet plants": {"test_system": "sugar beet plants", "assay": "Root and shoot growth in uninfected sugar beet plants after foliar spray", "type": "in vivo, Beta vulgaris cv. Amarok", "conditions": "two-week old sugar beet, seven days later", "protocol": "as §5, §3, §1"}, "[5]": {"conditions": "foliar spray, effect not statistically significant"}}, "data": [{"molecule": "O=C1O[C@H]([C@@H](O)CO)C(O)=C1O", "note": "[AA, ascorbic acid]", "values": [{"measurement": "amount of reduced AA in roots", "setting": "[1]", "value": "no changes"}, {"measurement": "amount of reduced AA in shoots", "setting": "[1]", "value": "significantly increased"}, {"measurement": "number of galls", "setting": "[2]", "value": "significantly lower number of galls"}, {"measurement": "number of nematodes", "setting": "[2]", "value": "lower number of nematodes"}, {"measurement": "number of embryonic crown roots (ECR)", "setting": "rice seedlings", "value": "significantly fewer ECR"}, {"measurement": "root length", "setting": "rice seedlings", "value": "slightly shorter roots"}, {"measurement": "number of galls", "setting": "[3]", "value": "no significant differences"}, {"measurement": "number of nematodes", "setting": "[3]", "value": "no significant differences"}, {"measurement": "root length", "setting": "Heterodera schachtii", "value": "None of the other treatments (AA or AO) had significant effects"}, {"measurement": "root weight", "setting": "Heterodera schachtii", "value": "None of the other treatments (AA or AO) had significant effects"}, {"measurement": "shoot weight", "setting": "Heterodera schachtii", "value": "None of the other treatments (AA or AO) had significant effects"}, {"measurement": "shoot height", "setting": "Heterodera schachtii", "value": "None of the other treatments (AA or AO) had significant effects"}]}, {"molecule": "CCN(CC)C(=S)S", "note": "[DIECA, diethyldithiocarbamic acid, reference compound]", "values": [{"measurement": "number of galls", "setting": "M. graminicola", "value": "significantly increased number of galls"}]}, {"molecule": "O=P(O)(O)CCCl", "note": "[ethephon]", "values": [{"measurement": "activation of root defence pathways", "setting": "root defence pathways", "value": "can activate root defence pathways with varying efficacy"}]}, {"molecule": "CC(N)CC(=O)O", "note": "(stereo not drawn) [BABA, β-aminobutyric acid]", "values": [{"measurement": "rice plant defence, tolerance or resistance against root parasitic nematodes", "setting": "root parasitic nematodes", "value": "enhances the rice plant defence system"}]}, {"molecule": "Cc1ncc(C[n+]2csc(CCO)c2C)c(N)n1", "note": "[thiamine]", "values": [{"measurement": "rice plant defence, tolerance or resistance against root parasitic nematodes", "setting": "root parasitic nematodes", "value": "enhances the rice plant defence system"}]}, {"molecule": "NOCC(=O)O", "note": "[AoA, aminooxyacetic acid, reference compound]", "values": [{"measurement": "number of galls", "setting": "M. graminicola", "value": "significantly higher number of galls"}]}, {"molecule": "silicon", "values": [{"measurement": "rice plant defence, tolerance or resistance against root parasitic nematodes", "setting": "root parasitic nematodes", "value": "enhances the rice plant defence system"}]}, {"molecule": "CC/C=C\\CC1C(=O)CCC1CC(=O)OC", "note": "(stereo not drawn) [MeJA, methyl jasmonate]", "values": [{"measurement": "activation of root defence pathways", "setting": "root defence pathways", "value": "can activate root defence pathways with varying efficacy"}]}, {"molecule": "AO: ascorbate oxidase, purchased from Sigma, used at 20 U/ml (protein, UniProt P37064 1-552, looked up) L-ascorbate oxidase: SQIRHYKWEVEYMFWAPNCNENIVMGINGQFPGPTIRANAGDSVVVELTNKLHTEGVVIHWHGILQRGTPWADGTASISQCAINPGETFFYNFTVDNPGTFFYHGHLGMQRSAGLYGSLIVDPPQGKKEPFHYDGEINLLLSDWWHQSIHKQEVGLSSKPIRWIGEPQTILLNGRGQFDCSIAAKYDSNLEPCKLKGSESCAPYIFHVSPKKTYRIRIASTTALAALNFAIGNHQLLVVEADGNYVQPFYTSDIDIYSGESYSVLITTDQNPSENYWVSVGTRARHPNTPPGLTLLNYLPNSVSKLPTSPPPQTPAWDDFDRSKNFTYRITAAMGSPKPPVKFNRRIFLLNTQNVINGYVKWAINDVSLALPPTPYLGAMKYNLLHAFDQNPPPEVFPEDYDIDTPPTNEKTRIGNGVYQFKIGEVVDVILQNANMMKENLSETHPWHLHGHDFWVLGYGDGKFSAEEESSLNLKNPPLRNTVVIFPYGWTAIRFVADNPGVWAFHCHIEPHLHMGMGVVFAEGVEKVGRIPTKALACGGTAKSLINNPKNP", "values": [{"measurement": "root length", "setting": "[4]", "value": "slightly increased root length"}, {"measurement": "DHA level in roots", "setting": "[1]", "value": "accumulating"}, {"measurement": "total levels of reduced and oxidized ascorbate in shoots", "setting": "[1]", "value": "slightly decreased"}, {"measurement": "number of galls", "setting": "[2]", "value": "no significant difference"}, {"measurement": "number of nematodes", "setting": "[2]", "value": "no significant difference"}, {"measurement": "dry root weight", "setting": "rice seedlings", "value": "some positive effects"}, {"measurement": "number of embryonic crown roots (ECR)", "setting": "rice seedlings", "value": "some positive effects"}, {"measurement": "root length", "setting": "rice seedlings", "value": "no root length effects"}, {"measurement": "number of galls", "setting": "[3]", "value": "significantly lower number of galls"}, {"measurement": "number of nematodes", "setting": "[3]", "value": "lower number of nematodes"}, {"measurement": "root length", "setting": "sugar beet plants; foliar spray (DHA 20 mM, AO 20 U/mL), vs water control", "value": "significantly longer roots"}, {"measurement": "fresh root weight", "setting": "sugar beet plants; [5]", "value": "positively affected"}, {"measurement": "shoot length", "setting": "sugar beet plants; [5]", "value": "positively affected"}, {"measurement": "root length", "setting": "Heterodera schachtii", "value": "None of the other treatments (AA or AO) had significant effects"}, {"measurement": "root weight", "setting": "Heterodera schachtii", "value": "None of the other treatments (AA or AO) had significant effects"}, {"measurement": "shoot weight", "setting": "Heterodera schachtii", "value": "None of the other treatments (AA or AO) had significant effects"}, {"measurement": "shoot height", "setting": "Heterodera schachtii", "value": "None of the other treatments (AA or AO) had significant effects"}]}]}
